{
  "source": "patent US9897551B2",
  "about": "“Method for accelerated degradation of thermoplastics” (priority 2013, dated 2018)",
  "key": {"[1]": {"assay": "pKa values of end-capping agents", "format": "physicochemical", "details": "approximated based on the values of similar structures"}, "[2]": {"details": "values taken from literature references (footnote); cited from earlier work"}},
  "note": "Like-named read-outs stand apart in the source and are kept apart here.",
  "data": [
    {"smiles": "CC(C)(c1ccccc1)c1ccc(O)cc1", "note": "[p-cumylphenol]", "values": [
      {"measurement": "pKa", "setting": "[1]", "result": 10.5}
    ]},
    {"smiles": "COc1ccc(O)cc1", "note": "[p-methoxyphenol]", "values": [
      {"measurement": "pKa", "setting": "[2]", "result": 10.4}
    ]}
  ]
}
